According to patent US12486302B2, “Somatostatin receptor antagonist compounds and methods of using the same” (CDRD VENTURES INC., priority 2016, dated 2025):
Where a SMILES comes first, the peptide text is derived from it. Bridges are numbered along the chain shown (N, C = ends). [ ]: non-standard residue; d: D form. The star is where a group is joined. ξ: configuration not given here. dPhe(4-CONH2) = NC(=O)c1ccc(C[C@@H](N)C(=O)O)cc1; Phe(4-Cl) = N[C@@H](Cc1ccc(Cl)cc1)C(=O)O; ξPhe(4-Cl) = NC(Cc1ccc(Cl)cc1)C(=O)O; dCit = NC(=O)NCCC[C@@H](N)C(=O)O; Lys(Me) = CNCCCC[C@H](N)C(=O)O; NMeC = CN[C@@H](CS)C(=O)O; MeOSuc = COC(=O)CCC(=O)*; dDap = NC[C@@H](N)C(=O)O; ξF = NC(Cc1ccccc1)C(=O)O; 2Furoyl = O=C(c1ccco1)*

Biological target: somatostatin type 2 (SSTR2) receptors (Homo sapiens, UniProt P30874)
Experiment: PathHunter β-Arrestin assay, antagonist mode, SSTR2
Format: cell-based
Settings: agonist challenge at EC80
Method: The PathHunter® β-Arrestin assay monitors the activation of a GPCR in a homogenous, non-imaging assay format using a technology developed by DiscoveRx called Enzyme Fragment Complementation (EFC) with β-galactosidase (β-Gal) as the functional reporter. […] EA is fused to β-Arrestin and […] is fused to the GPCR of interest. When the GPCR is activated and β-Arrestin is recruited to the receptor, ED and EA complementation occurs, restoring β-Gal activity which is measured using chemiluminescent PathHunter® Detection Reagents. For antagonist determination, cells were pre-incubated with the compounds followed by agonist challenge at the EC80 concentration. Data was normalized to the maximal and minimal response observed in the presence of EC80 ligand and vehicle. Compound activity was analyzed using CBIS data analysis suite ChemInnovation, CA). Percentage inhibition was calculated using the following formula: % Inhibition=100%×(1−(mean signal of test sample-mean signal of vehicle control)/(mean signal of EC80 control-mean signal of vehicle control)). Percentage inhibition was calculated at 10 concentrations in steps on a Log 3 scale ranging from […] to 5e-5 μM. The results were plotted for IC50 calculation.

Chain of somatostatin type 2 (SSTR2) receptors (P30874 whole entry): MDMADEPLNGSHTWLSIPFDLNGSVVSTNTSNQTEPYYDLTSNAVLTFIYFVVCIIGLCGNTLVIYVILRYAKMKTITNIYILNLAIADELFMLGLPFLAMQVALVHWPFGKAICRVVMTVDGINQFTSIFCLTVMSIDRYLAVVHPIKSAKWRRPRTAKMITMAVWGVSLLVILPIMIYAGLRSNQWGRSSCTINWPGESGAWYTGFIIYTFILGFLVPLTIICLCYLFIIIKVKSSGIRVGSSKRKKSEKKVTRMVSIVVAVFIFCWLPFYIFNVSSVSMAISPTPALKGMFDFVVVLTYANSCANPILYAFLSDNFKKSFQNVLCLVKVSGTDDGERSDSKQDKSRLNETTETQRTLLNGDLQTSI

SMILES	IC50
CNCCCC[C@@H]1NC(=O)[C@@H](CCCNC(N)=O)NC(=O)[C@H](Cc2ccc(O)cc2)NC(=O)[C@H](NC(=O)[C@@H](N)Cc2ccc(Cl)cc2)CSSC[C@@H](C(=O)N[C@H](Cc2ccc(O)cc2)C(N)=O)NC(=O)[C@H]([C@@H](C)O)NC1=O [Compound 31, H-Cpa-cyclo[DCys- Tyr-D-Cit- (N—Me)Lys-Thr- Cys]-DTyr-NH2] (H-[Phe(4-Cl)][dC]Y[dCit][Lys(Me)]TC[dY]-NH2; disulfide 2-7)	0.0704 µM
C[C@@H](O)[C@@H]1NC(=O)[C@H](CCCCN)NC(=O)[C@@H](Cc2ccc(C(N)=O)cc2)NC(=O)[C@H](Cc2ccccc2)NC(=O)[C@H](NC(=O)[C@@H](N)Cc2ccc(Cl)cc2)CSSC[C@@H](C(=O)NC(Cc2ccccc2)C(N)=O)NC1=O (stereo partly drawn) [Compound 41, H-Cpa-cyclo[DCys- Phe-D-(4- carbamoyl)Phe-Lys- Thr-Cys]-DPhe-NH2] (H-[Phe(4-Cl)][dC]F[dPhe(4-CONH2)]KTC[ξF]-NH2; disulfide 2-7)	0.0244 µM
C[C@@H](O)[C@@H]1NC(=O)[C@H](CCCCN)NC(=O)[C@@H](Cc2ccc(C(N)=O)cc2)NC(=O)[C@H](Cc2ccc(O)cc2)NC(=O)[C@H](NC(=O)[C@@H](N)Cc2ccc(Cl)cc2)CNC(=O)C[C@@H](C(=O)N[C@H](Cc2ccc(O)cc2)C(N)=O)NC1=O [Compound 69, H-Cpa-cyclo [DDap-Tyr- DPhe(4-CONH2)- Lys-Thr-Asp]- DTyr-NH2] (H-[Phe(4-Cl)][dDap]Y[dPhe(4-CONH2)]KTD[dY]-NH2; lactam 2-7)	> 1 µM
C[C@@H](O)[C@@H]1NC(=O)[C@H](CCCCN)NC(=O)[C@@H](Cc2ccc(C(N)=O)cc2)NC(=O)[C@H](Cc2ccc(O)cc2)NC(=O)[C@H](NC(=O)[C@@H](N)Cc2ccc(Cl)cc2)CSSC[C@@H](C(=O)N[C@H](Cc2ccc(O)cc2)C(N)=O)N(C)C1=O [Compound 76, H-Cpa-[DCys- Tyr-DPhe (4-carbamoyl)- Lys-Thr-NMeCys]- DTyr-NH2] (H-[Phe(4-Cl)][dC]Y[dPhe(4-CONH2)]KT[NMeC][dY]-NH2; disulfide 2-7)	0.4 µM

Stronger by IC50, values ahead:

IC50	SMILES
0.00984 µM	C[C@@H](O)[C@@H]1NC(=O)[C@H](CCCCN)NC(=O)[C@@H](Cc2ccc(C(N)=O)cc2)NC(=O)[C@H](Cc2ccc(O)cc2)NC(=O)[C@H](NC(=O)[C@@H](N)Cc2ccc(Cl)cc2)CSSC[C@@H](C(=O)NC(Cc2ccc(Cl)cc2)C(N)=O)NC1=O (stereo partly drawn) [Compound 42, H-Cpa-cyclo[DCys- Tyr-D-(4- carbamoyl)Phe- Lys-Thr-Cys]- 4-Cl-D-Phe-NH2] (H-[Phe(4-Cl)][dC]Y[dPhe(4-CONH2)]KTC[ξPhe(4-Cl)]-NH2; disulfide 2-7)
0.00365 µM	CNCCCC[C@@H]1NC(=O)[C@@H](Cc2ccc(C(N)=O)cc2)NC(=O)[C@H](Cc2ccc(O)cc2)NC(=O)[C@H](NC(=O)[C@H](Cc2ccc(Cl)cc2)NC(=O)c2ccco2)CSSC[C@@H](C(=O)N[C@H](Cc2ccc(O)cc2)C(N)=O)NC(=O)[C@H]([C@@H](C)O)NC1=O [Compound 57, (Furan-2-carboxy)-Cpa-cyclo[D-Cys-Tyr-D-Phe(4-carbamoyl)-Lys(N^ε-Me)-Thr-Cys]-D-Tyr-NH2] (2Furoyl-[Phe(4-Cl)][dC]Y[dPhe(4-CONH2)][Lys(Me)]TC[dY]-NH2; disulfide 2-7)
0.00236 µM	CNCCCC[C@@H]1NC(=O)[C@@H](Cc2ccc(C(N)=O)cc2)NC(=O)[C@H](Cc2ccc(O)cc2)NC(=O)[C@H](NC(=O)[C@H](Cc2ccc(Cl)cc2)NC(=O)CCC(=O)OC)CSSC[C@@H](C(=O)N[C@H](Cc2ccc(O)cc2)C(N)=O)NC(=O)[C@H]([C@@H](C)O)NC1=O [Compound 58, CH3O2C(CH2)2(CO)-Cpa-cyclo[D-Cys-Tyr-D-Phe(4-carbamoyl)-Lys(N^ε-Me)-Thr-Cys]-D-Tyr-NH2] (MeOSuc-[Phe(4-Cl)][dC]Y[dPhe(4-CONH2)][Lys(Me)]TC[dY]-NH2; disulfide 2-7)
